Reference: patent US9751840B2, “R-7-(3-aminomethyl-4-methoxyimino-3-methyl-pyrrolidin-1-yl)-1-cyclopropyl-6-fluoro-4-oxo-acid and L-aspartic acid salt, process for the preparation thereof and pharmaceutical composition comprising the same for antimicrobial” (ARIBIO CO. LTD., priority 2009, dated 2017)
Values after ≈ are worked out from the molar mass of the structure shown.

Legend:
Solubility test = type: physicochemical; conditions: room temperature, water
[1] = Stability test in distilled water; type: physicochemical; conditions: 30 mg in 100 ml distilled water
Male ICR mice = test: Single dose toxicity in mice (LD50); conditions: single intraperitoneal dose, observed 14 days
Description: The following experiment was performed in order to observe the degree of toxicity of the L-aspartate according to the present invention.
Male ICR mice were used as experimental animals. 5 male ICR mice were divided into 6 dose groups, respectively and fasted except for water for 24 hours.

Compound | solubility (Solubility test) [mg/mL] | Content (%) 60? (after 3 weeks) [1] [%] | Content (%) Initial [1] [%] | Content (%) Room temperature (after 3 weeks) [1] [%] | Lethal dose 50 (Male ICR mice) [mg/kg]
CON=C1CN(c2nc3c(cc2F)c(=O)c(C(=O)O)cn3C2CC2)C[C@@]1(C)CN [Free form (Comparative Example 2)] | 2.79 (≈ 6.92 mM) | 34.6 | 97.3 | 96.8 | 
CON=C1CN(c2nc3c(cc2F)c(=O)c(C(=O)O)cn3C2CC2)C[C@@]1(C)CN.O=CO [Formate (Comparative Example 5)] | 27.5 | 75.1 | 89.7 | 89.7 | 
CON=C1CN(c2nc3c(cc2F)c(=O)c(C(=O)O)cn3C2CC2)C[C@@]1(C)CN.CS(=O)(=O)O [Methanesulfonate (Comparative Example 4)] | 99.1 | 89.6 | 96.4 | 96.8 | 
CON=C1CN(c2nc3c(cc2F)c(=O)c(C(=O)O)cn3C2CC2)C[C@@]1(C)CN.O=P(O)(O)O [Phosphate (Comparative Example 6)] | 57.8 | 91.2 | 98.1 | 97.9 | 176
CON=C1CN(c2nc3c(cc2F)c(=O)c(C(=O)O)cn3C2CC2)C[C@@]1(C)CN.Cc1ccc(S(=O)(=O)O)cc1 | 5.78 | 87.3 | 98.6 | 98.1 | 
